From US9708314B2, “Heterocyclic amide compound” (NISSAN CHEMICAL INDUSTRIES, LTD., priority 2013, dated 2017)

How the values were obtained:
Type in all cases: in vivo
[1] = test system: Zea mays; assay: Test Example 4: effect on crop by application to foliage (diluvial soil, plastic box); conditions: for c: effect on crop, Zea mays: application to foliage, application herbicide amount 320 g/ha
Source text: (§1) 5 Herbicidal ratio of 90% or more (almost completely withered) 4 Herbicidal ratio of 70% or more and less than 90% 3 Herbicidal ratio of 40% or more and less than 70% 2 Herbicidal ratio of 20% or more and less than 40% 1 Herbicidal ratio of 5% or more and less than 20% 0 Herbicidal ratio of 5% or less (almost no effect) [Test Example 4] Herbicidal Effect Test by Application to Foliage Sterilized diluvial soil was placed in a plastic box having a length of 21 cm, a width of 13 cm, and a depth of 7 cm. Each of the seeds of Digitaria ciliaris, Setaria viridis, Echinochloa crus-galli var. crus-galli, Avena fatua, Alopecurus myosuroides, Lolium multiflorum Lam., Apera spica-venti., Abutilon theophrasti, Amaranthus retroflexus, Chenopodium album, Stellaria media, Galium spurium, Veronica persica, Zea mays, Glycine max, Oryza sativa, Triticum aestivum, Beta vulgaris ssp. vulgaris, and Brassica campestris L. was sowed in a spot-like manner and was covered with the soil of about 1.5 cm thick. Thereafter, the plants were grown in the greenhouse of 25° C. to 30° C. After the plants were grown for 14 days, the emulsion agent containing the compound of the present invention prepared in accordance with Formulation Example 2 was diluted with water so as to be a predetermined herbicide amount and the diluted compound was uniformly applied to a stem and leaf part with a small-size spray. Three weeks after the herbicide application, effects on each plant were investigated in accordance with the criteria of Test Example 1. A: Echinochloa oryzicola Vasing., B: Scirpus juncoides, C: Monochoria vaginalis, D: Leptochloa chinensis, E: Cyperus difformis, F: Digitaria ciliaris, G: Setaria viridis, H: Echinochloa crus-galli var. crus-galli, I: Avena fatua, J: Alopecurus myosuroides, K: Lolium multiflorum Lam., L: Apera spica-venti., M: Abutilon theophrasti, N: Amaranthus retroflexus, O: Chenopodium album, P: Stellaria media, Q: Galium spurium, R: Veronica persica, a: transplanted Oryza sativa, b: directly sowed Oryza sativa, c: Zea mays, d: Glycine max, e: Triticum aestivum, f: Beta vulgaris ssp. vulgaris, and g: Brassica campestris L. The application herbicide amount (g/ha) means an amount that a concentration is adjusted so that, when an application amount is converted into per hectare (1 ha), the herbicide is applied by the number of grams (g) of the described value.

[2] = test system: directly sowed Oryza sativa; assay: as above; conditions: for b: effect on crop, directly sowed Oryza sativa: application to foliage, application herbicide amount 320 g/ha
Source text: as §1

[3] = test system: Beta vulgaris ssp. vulgaris; assay: as above; conditions: for f: effect on crop, Beta vulgaris ssp. vulgaris: application to foliage, application herbicide amount 320 g/ha
Source text: as §1

[4] = test system: Brassica campestris L.; assay: as above; conditions: for g: effect on crop, Brassica campestris L.: application to foliage, application herbicide amount 320 g/ha
Source text: as §1

[5] = test system: Triticum aestivum; assay: as above; conditions: for e: effect on crop, Triticum aestivum: application to foliage, application herbicide amount 320 g/ha
Source text: as §1

[6] = test system: Glycine max; assay: as above; conditions: for d: effect on crop, Glycine max: application to foliage, application herbicide amount 320 g/ha
Source text: as §1

[7] = test system: directly sowed Oryza sativa; assay: Test Example 3: effect on crop by application to foliage (Wagner pot, water depth 0.1-0.5 cm); conditions: Nineteenth Table; application to foliage; application herbicide amount 224 g/ha
Source text: (§2) 5 Herbicidal ratio of 90% or more (almost completely withered) 4 Herbicidal ratio of 70% or more and less than 90% 3 Herbicidal ratio of 40% or more and less than 70% 2 Herbicidal ratio of 20% or more and less than 40% 1 Herbicidal ratio of 5% or more and less than 20% 0 Herbicidal ratio of 5% or less (almost no effect) [Test Example 3] Herbicidal Effect Test by Application to Foliage After alluvial soil was placed into 1/10000 are of Wagner pot, water was poured and mixed to form a condition having a water depth of 0.1 cm to 0.5 cm. Seeds of Echinochloa crus-galli var. crus-galli, Leptochloa chinensis, Cyperus difformis, and Oryza sativa were sowed and the pot was placed in the greenhouse of 25° C. to 30° C. to grow the plants. After the plants were grown for 14 days, the emulsion agent containing the compound of the present invention prepared in accordance with Formulation Example 2 was diluted with water so as to be a predetermined herbicide amount and the diluted compound was uniformly applied to a stem and leaf part with a small-size spray. Three weeks after the herbicide application, effects on each plant were investigated in accordance with the criteria of Test Example 1. A: Echinochloa oryzicola Vasing., B: Scirpus juncoides, C: Monochoria vaginalis, D: Leptochloa chinensis, E: Cyperus difformis, F: Digitaria ciliaris, G: Setaria viridis, H: Echinochloa crus-galli var. crus-galli, I: Avena fatua, J: Alopecurus myosuroides, K: Lolium multiflorum Lam., L: Apera spica-venti., M: Abutilon theophrasti, N: Amaranthus retroflexus, O: Chenopodium album, P: Stellaria media, Q: Galium spurium, R: Veronica persica, a: transplanted Oryza sativa, b: directly sowed Oryza sativa, c: Zea mays, d: Glycine max, e: Triticum aestivum, f: Beta vulgaris ssp. vulgaris, and g: Brassica campestris L. The application herbicide amount (g/ha) means an amount that a concentration is adjusted so that, when an application amount is converted into per hectare (1 ha), the herbicide is applied by the number of grams (g) of the described value.

[8] = test system: Apera spica-venti.; assay: Test Example 4: herbicidal effect by application to foliage (diluvial soil, plastic box); conditions: for L: herbicidal effect on Apera spica-venti.: application to foliage, application herbicide amount 320 g/ha
Source text: as §1

[9] = test system: Veronica persica; assay: as above; conditions: for R: herbicidal effect on Veronica persica: application to foliage, application herbicide amount 320 g/ha
Source text: as §1

[10] = test system: Setaria viridis; assay: as above; conditions: for G: herbicidal effect on Setaria viridis: application to foliage, application herbicide amount 320 g/ha
Source text: as §1

[11] = test system: Lolium multiflorum Lam.; assay: as above; conditions: for K: herbicidal effect on Lolium multiflorum Lam.: application to foliage, application herbicide amount 320 g/ha
Source text: as §1

[12] = test system: Chenopodium album; assay: as above; conditions: for O: herbicidal effect on Chenopodium album: application to foliage, application herbicide amount 320 g/ha
Source text: as §1

[13] = test system: Galium spurium; assay: as above; conditions: for Q: herbicidal effect on Galium spurium: application to foliage, application herbicide amount 320 g/ha
Source text: as §1

[14] = test system: Alopecurus myosuroides; assay: as above; conditions: for J: herbicidal effect on Alopecurus myosuroides: application to foliage, application herbicide amount 320 g/ha
Source text: as §1

[15] = test system: Abutilon theophrasti; assay: as above; conditions: for M: herbicidal effect on Abutilon theophrasti: application to foliage, application herbicide amount 320 g/ha
Source text: as §1

[16] = test system: Avena fatua; assay: as above; conditions: for I: herbicidal effect on Avena fatua: application to foliage, application herbicide amount 320 g/ha
Source text: as §1

[17] = test system: Digitaria ciliaris; assay: as above; conditions: for F: herbicidal effect on Digitaria ciliaris: application to foliage, application herbicide amount 320 g/ha
Source text: as §1

[18] = test system: Echinochloa crus-galli var. crus-galli; assay: as above; conditions: for H: herbicidal effect on Echinochloa crus-galli var. crus-galli: application to foliage, application herbicide amount 320 g/ha
Source text: as §1

[19] = test system: Leptochloa chinensis; assay: Test Example 3: herbicidal effect by application to foliage (Wagner pot, water depth 0.1-0.5 cm); conditions: Nineteenth Table; application to foliage; application herbicide amount 224 g/ha
Source text: as §2

[20] = test system: Cyperus difformis; assay: as above; conditions: Nineteenth Table; application to foliage; application herbicide amount 224 g/ha
Source text: as §2

[21] = test system: Echinochloa crus-galli var. crus-galli; assay: as above; conditions: Nineteenth Table; application to foliage; application herbicide amount 224 g/ha
Source text: as §2

[22] = test system: Amaranthus retroflexus; assay: Test Example 4: herbicidal effect by application to foliage (diluvial soil, plastic box); conditions: application to foliage, application herbicide amount 320 g/ha
Source text: as §1

[23] = test system: Stellaria media; assay: as above; conditions: application to foliage, application herbicide amount 320 g/ha
Source text: as §1

[24] = Application herbicide amount 224 g/ha, effect on crop
[25] = Application herbicide amount 224 g/ha

Which results are given for `Cc1nnc(NC(=O)c2c(C)cc(C(F)(F)F)n3c(C(C)C)nnc23)o1` [1-089]?
b [1, 24]: 0 (Herbicidal ratio of 5% or less (almost no effect)); d [2, 24]: 1 (Herbicidal ratio of 5% or more and less than 20%); f [3, 24]: 3 (Herbicidal ratio of 40% or more and less than 70%); g [4, 24]: 1 (Herbicidal ratio of 5% or more and less than 20%); e [5, 24]: 0 (Herbicidal ratio of 5% or less (almost no effect)); c [6, 24]: 0 (Herbicidal ratio of 5% or less (almost no effect)); b (effect on crop grade) [7]: 0 (Herbicidal ratio of 5% or less (almost no effect)); L [8, 25]: 0 (Herbicidal ratio of 5% or less (almost no effect)); R [9, 25]: 3 (Herbicidal ratio of 40% or more and less than 70%); G [10, 25]: 0 (Herbicidal ratio of 5% or less (almost no effect)); K [11, 25]: 0 (Herbicidal ratio of 5% or less (almost no effect)); O [12, 25]: 4 (Herbicidal ratio of 70% or more and less than 90%); Q [13, 25]: 0 (Herbicidal ratio of 5% or less (almost no effect)); J [14, 25]: 0 (Herbicidal ratio of 5% or less (almost no effect)); M [15, 25]: 2 (Herbicidal ratio of 20% or more and less than 40%); I [16, 25]: 2 (Herbicidal ratio of 20% or more and less than 40%); F [17, 25]: 1 (Herbicidal ratio of 5% or more and less than 20%); H [18, 25]: 3 (Herbicidal ratio of 40% or more and less than 70%); D (herbicidal effect grade) [19]: 3 (Herbicidal ratio of 40% or more and less than 70%); E (herbicidal effect grade) [20]: 2 (Herbicidal ratio of 20% or more and less than 40%); H (herbicidal effect grade) [21]: 3 (Herbicidal ratio of 40% or more and less than 70%)

Which results are given for `CC#Cc1nnc2c(C(=O)Nc3nnco3)ccc(C(F)(F)F)n12` [1-160]?
c: effect on crop, Zea mays [1]: 0 (Herbicidal ratio of 5% or less (almost no effect)); b: effect on crop, directly sowed Oryza sativa [2]: 0 (Herbicidal ratio of 5% or less (almost no effect)); f: effect on crop, Beta vulgaris ssp. vulgaris [3]: 2 (Herbicidal ratio of 20% or more and less than 40%); g: effect on crop, Brassica campestris L. [4]: 0 (Herbicidal ratio of 5% or less (almost no effect)); e: effect on crop, Triticum aestivum [5]: 0 (Herbicidal ratio of 5% or less (almost no effect)); d: effect on crop, Glycine max [6]: 2 (Herbicidal ratio of 20% or more and less than 40%); L: herbicidal effect on Apera spica-venti. [8]: 0 (Herbicidal ratio of 5% or less (almost no effect)); N: herbicidal effect on Amaranthus retroflexus [22]: 1 (Herbicidal ratio of 5% or more and less than 20%); R: herbicidal effect on Veronica persica [9]: 1 (Herbicidal ratio of 5% or more and less than 20%); G: herbicidal effect on Setaria viridis [10]: 0 (Herbicidal ratio of 5% or less (almost no effect)); P: herbicidal effect on Stellaria media [23]: 3 (Herbicidal ratio of 40% or more and less than 70%); K: herbicidal effect on Lolium multiflorum Lam. [11]: 0 (Herbicidal ratio of 5% or less (almost no effect)); O: herbicidal effect on Chenopodium album [12]: 4 (Herbicidal ratio of 70% or more and less than 90%); Q: herbicidal effect on Galium spurium [13]: 0 (Herbicidal ratio of 5% or less (almost no effect)); J: herbicidal effect on Alopecurus myosuroides [14]: 0 (Herbicidal ratio of 5% or less (almost no effect)); M: herbicidal effect on Abutilon theophrasti [15]: 3 (Herbicidal ratio of 40% or more and less than 70%); I: herbicidal effect on Avena fatua [16]: 0 (Herbicidal ratio of 5% or less (almost no effect)); F: herbicidal effect on Digitaria ciliaris [17]: 1 (Herbicidal ratio of 5% or more and less than 20%); H: herbicidal effect on Echinochloa crus-galli var. crus-galli [18]: 2 (Herbicidal ratio of 20% or more and less than 40%)

How did the “c: effect on crop, Zea mays” value [1] turn out when `CC(C)c1nnc2c(C(=O)Nc3nnnn3C)cc(C(F)(F)F)cn12` [2-018] was run?
Its value is 0 (Herbicidal ratio of 5% or less (almost no effect)).

What about the “b: effect on crop, directly sowed Oryza sativa” value [2] of the same compound?
Its value is 0 (Herbicidal ratio of 5% or less (almost no effect)).

What about the “f: effect on crop, Beta vulgaris ssp. vulgaris” value [3] of the same compound?
Its value is 1 (Herbicidal ratio of 5% or more and less than 20%).

And the “g: effect on crop, Brassica campestris L.” value [4]?
Its value is 0 (Herbicidal ratio of 5% or less (almost no effect)).

And the “e: effect on crop, Triticum aestivum” value [5]?
The value was 0 (Herbicidal ratio of 5% or less (almost no effect)).

And the “d: effect on crop, Glycine max” value [6]?
Its value is 0 (Herbicidal ratio of 5% or less (almost no effect)).

And the “L: herbicidal effect on Apera spica-venti.” value [8]?
Its value is 0 (Herbicidal ratio of 5% or less (almost no effect)).

What about the “N: herbicidal effect on Amaranthus retroflexus” value [22] of the same compound?
Its value is 3 (Herbicidal ratio of 40% or more and less than 70%).

And the “R: herbicidal effect on Veronica persica” value [9]?
The value was 2 (Herbicidal ratio of 20% or more and less than 40%).

And the “G: herbicidal effect on Setaria viridis” value [10]?
The value was 1 (Herbicidal ratio of 5% or more and less than 20%).

What about the “P: herbicidal effect on Stellaria media” value [23] of the same compound?
Its value is 0 (Herbicidal ratio of 5% or less (almost no effect)).

And the “K: herbicidal effect on Lolium multiflorum Lam.” value [11]?
Its value is 0 (Herbicidal ratio of 5% or less (almost no effect)).

And the “O: herbicidal effect on Chenopodium album” value [12]?
Its value is 3 (Herbicidal ratio of 40% or more and less than 70%).

And the “Q: herbicidal effect on Galium spurium” value [13]?
The value was 1 (Herbicidal ratio of 5% or more and less than 20%).

And the “J: herbicidal effect on Alopecurus myosuroides” value [14]?
Its value is 0 (Herbicidal ratio of 5% or less (almost no effect)).

What about the “M: herbicidal effect on Abutilon theophrasti” value [15] of the same compound?
The value was 3 (Herbicidal ratio of 40% or more and less than 70%).

And the “I: herbicidal effect on Avena fatua” value [16]?
The value was 0 (Herbicidal ratio of 5% or less (almost no effect)).

What about the “F: herbicidal effect on Digitaria ciliaris” value [17] of the same compound?
The value was 2 (Herbicidal ratio of 20% or more and less than 40%).

What about the “H: herbicidal effect on Echinochloa crus-galli var. crus-galli” value [18] of the same compound?
Its value is 1 (Herbicidal ratio of 5% or more and less than 20%).
